The target of one test is T1, Peregrin (Homo sapiens, UniProt P55201).
T1 sequence (P55201 whole entry): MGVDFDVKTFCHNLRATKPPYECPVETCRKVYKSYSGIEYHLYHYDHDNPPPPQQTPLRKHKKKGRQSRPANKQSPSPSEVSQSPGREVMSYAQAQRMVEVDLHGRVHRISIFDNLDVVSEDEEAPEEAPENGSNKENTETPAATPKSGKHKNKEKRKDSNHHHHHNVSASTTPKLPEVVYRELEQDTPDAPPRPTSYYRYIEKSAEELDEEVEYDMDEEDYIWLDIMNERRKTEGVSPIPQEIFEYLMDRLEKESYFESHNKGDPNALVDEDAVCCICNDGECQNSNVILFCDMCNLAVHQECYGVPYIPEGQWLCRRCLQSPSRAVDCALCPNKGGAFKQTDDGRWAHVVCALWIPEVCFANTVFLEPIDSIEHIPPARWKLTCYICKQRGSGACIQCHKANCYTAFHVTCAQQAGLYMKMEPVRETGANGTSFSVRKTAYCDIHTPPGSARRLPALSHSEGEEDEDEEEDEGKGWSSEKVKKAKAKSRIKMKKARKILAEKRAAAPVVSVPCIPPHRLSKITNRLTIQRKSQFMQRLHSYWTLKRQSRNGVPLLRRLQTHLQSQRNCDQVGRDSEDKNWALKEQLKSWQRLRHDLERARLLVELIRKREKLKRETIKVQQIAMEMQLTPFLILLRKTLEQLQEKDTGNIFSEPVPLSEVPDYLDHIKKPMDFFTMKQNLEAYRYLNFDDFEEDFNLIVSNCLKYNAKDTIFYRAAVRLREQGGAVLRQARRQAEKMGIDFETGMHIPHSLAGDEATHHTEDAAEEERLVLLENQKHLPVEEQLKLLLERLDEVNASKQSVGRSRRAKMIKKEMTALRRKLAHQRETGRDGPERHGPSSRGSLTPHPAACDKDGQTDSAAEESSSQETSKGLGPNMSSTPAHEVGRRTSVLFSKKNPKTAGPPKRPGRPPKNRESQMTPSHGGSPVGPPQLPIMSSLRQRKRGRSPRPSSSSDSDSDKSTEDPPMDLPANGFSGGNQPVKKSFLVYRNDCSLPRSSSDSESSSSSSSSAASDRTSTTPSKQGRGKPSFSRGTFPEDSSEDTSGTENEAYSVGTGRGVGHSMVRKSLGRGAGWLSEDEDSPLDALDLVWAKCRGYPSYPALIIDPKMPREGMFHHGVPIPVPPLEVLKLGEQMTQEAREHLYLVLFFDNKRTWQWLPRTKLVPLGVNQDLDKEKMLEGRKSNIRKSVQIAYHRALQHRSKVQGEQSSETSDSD
The experiment in a line: Inhibition of human BRPF1 (627 to 740 residues) expressed in Escherichia coli BL21 after 1 hr by BROMOscan assay.

The target in test [1] is T2, Bromodomain-containing protein 9 (Homo sapiens, UniProt Q9H8M2).
T2 sequence (Q9H8M2 whole entry): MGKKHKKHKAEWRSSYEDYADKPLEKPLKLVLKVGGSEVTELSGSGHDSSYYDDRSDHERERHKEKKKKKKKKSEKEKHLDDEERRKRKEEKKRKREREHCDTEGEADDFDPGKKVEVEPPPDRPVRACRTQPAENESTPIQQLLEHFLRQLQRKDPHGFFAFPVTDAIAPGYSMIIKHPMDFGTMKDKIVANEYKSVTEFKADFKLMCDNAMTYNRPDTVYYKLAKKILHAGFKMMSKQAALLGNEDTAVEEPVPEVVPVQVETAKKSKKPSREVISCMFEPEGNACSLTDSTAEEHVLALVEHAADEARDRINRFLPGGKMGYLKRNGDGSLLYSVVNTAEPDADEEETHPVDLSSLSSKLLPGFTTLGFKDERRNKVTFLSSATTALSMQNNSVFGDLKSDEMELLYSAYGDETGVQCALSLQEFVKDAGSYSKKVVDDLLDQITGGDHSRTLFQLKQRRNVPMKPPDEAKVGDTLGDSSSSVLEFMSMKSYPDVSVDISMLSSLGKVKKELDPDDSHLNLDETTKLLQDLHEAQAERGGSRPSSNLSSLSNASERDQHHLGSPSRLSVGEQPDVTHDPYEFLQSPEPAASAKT
Description: Inhibition of human BRD9 (130 to 259 residues) expressed in Escherichia coli BL21 after 1 hr by BROMOscan assay

Test [2] has as its target T3, Bromodomain-containing protein 1 (Homo sapiens, UniProt O95696).
T3 sequence (O95696 whole entry): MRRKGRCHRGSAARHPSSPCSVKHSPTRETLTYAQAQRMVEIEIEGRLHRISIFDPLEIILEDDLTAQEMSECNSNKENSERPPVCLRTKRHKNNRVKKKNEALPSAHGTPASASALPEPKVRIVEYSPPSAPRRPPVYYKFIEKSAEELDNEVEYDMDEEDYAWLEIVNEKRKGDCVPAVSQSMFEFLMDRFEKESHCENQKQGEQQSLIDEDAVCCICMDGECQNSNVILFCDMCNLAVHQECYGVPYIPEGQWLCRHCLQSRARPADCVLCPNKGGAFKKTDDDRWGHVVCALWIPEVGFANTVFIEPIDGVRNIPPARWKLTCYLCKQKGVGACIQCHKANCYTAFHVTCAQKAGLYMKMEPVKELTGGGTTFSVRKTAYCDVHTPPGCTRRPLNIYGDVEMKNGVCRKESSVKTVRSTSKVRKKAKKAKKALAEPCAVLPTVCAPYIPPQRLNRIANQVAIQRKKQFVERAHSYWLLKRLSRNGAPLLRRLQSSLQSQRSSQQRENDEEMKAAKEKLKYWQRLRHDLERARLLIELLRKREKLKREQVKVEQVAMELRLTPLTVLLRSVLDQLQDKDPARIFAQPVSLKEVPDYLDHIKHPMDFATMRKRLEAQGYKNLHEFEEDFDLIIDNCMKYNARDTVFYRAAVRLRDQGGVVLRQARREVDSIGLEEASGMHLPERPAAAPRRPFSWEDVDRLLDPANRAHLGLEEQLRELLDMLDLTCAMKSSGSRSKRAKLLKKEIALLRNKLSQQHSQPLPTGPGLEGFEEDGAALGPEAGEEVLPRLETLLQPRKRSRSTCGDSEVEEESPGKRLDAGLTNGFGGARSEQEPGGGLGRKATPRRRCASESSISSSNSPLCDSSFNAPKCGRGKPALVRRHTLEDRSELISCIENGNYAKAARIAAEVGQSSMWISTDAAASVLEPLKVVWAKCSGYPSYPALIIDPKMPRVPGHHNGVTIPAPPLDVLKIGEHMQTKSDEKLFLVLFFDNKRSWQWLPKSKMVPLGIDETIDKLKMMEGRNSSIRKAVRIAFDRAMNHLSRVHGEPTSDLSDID
The experiment in a line: Inhibition of human BRPF2 (556 to 688 residues) expressed in Escherichia coli BL21 after 1 hr by BROMOscan assay.

Test [3] has as its target Bromodomain-containing protein 4 (Homo sapiens, UniProt O60885). The experiment in a line: Inhibition of human BRD4 isoform long bromodomain 1 (44 to 168 residues) expressed in Escherichia coli BL21 after 1 hr by BROMOscan assay.

SMILES strings stand for the structures. pIC50: −log10 of the molar value.

By pIC50 is commonly meant the negative decadic logarithm of the IC50, by convention in mol/L. A high value points to a small IC50. As for `COc1cc(C#N)ccc1S(=O)(=O)Nc1ccc2c(c1)cc(C(C)C)c(=O)n2C`, the pIC50 at Peregrin is 6.77; in test [1], 5.03; in test [2] it was 5.48.
Regarding `Cn1c(=O)ccc2cc(S(=O)(=O)Nc3ccccc3)ccc21`, the pIC50 was 6.00 against Peregrin, 5.01 in test [1], 5.11 in test [2] and 4.43 in test [3].
In the same order, the values of `COc1cc(C#N)ccc1S(=O)(=O)Nc1ccc2c(c1)cc(C)c(=O)n2C` are 8.51, 6.28, 7.34 and 5.43.
